Laboratory results: ChEMBL document CHEMBL5154659, “A3 adenosine receptor agonists containing dopamine moieties for enhanced interspecies affinity” (Eur J Med Chem, 2022)
Converted amounts (≈) assume the structure as drawn.

Experiments:
[1] = Oral bioavailability in Wistar rat at 3 mg/kg; assay type: ADME, organism-based; details: in vivo
[2] = Aqueous solubility of compound at pH 7.4; assay type: physicochemical
[3] = target: Voltage-gated inwardly rectifying potassium channel KCNH2 (Homo sapiens, UniProt Q12809); assay: Inhibition of human ERG; assay type: toxicity
[4] = Half life in Wistar rat at 0.5 mg/kg, iv; assay type: ADME, organism-based; details: in vivo
Adenosine receptor A2a [5] = target: T1, Adenosine receptor A2a (Homo sapiens, UniProt P29274); assay: Displacement of [3H]-2-p-2-(carboxyethyl)phenyl-ethylamino-5'-N-ethylcarboxamidoadenosine from human A2A receptor stably expressed in HEK293 cell membrane by radioligand inhibition assay; assay type: cell membranes
[6] = Stability of the compound in simulated intestinal fluid assessed as parent compound remaining at 120 mins; assay type: ADME; details: simulated gi fluid, 2 h
[7] = Stability of the compound in simulated gastric fluid assessed as parent compound remaining at 120 mins; assay type: ADME; details: simulated gi fluid, 2 h
Cytochrome P450 1A2 = target: T2, Cytochrome P450 1A2 (Homo sapiens, UniProt P05177); assay: Inhibition of CYP1A2 (unknown origin); assay type: ADME
T2 sequence (P05177 whole entry): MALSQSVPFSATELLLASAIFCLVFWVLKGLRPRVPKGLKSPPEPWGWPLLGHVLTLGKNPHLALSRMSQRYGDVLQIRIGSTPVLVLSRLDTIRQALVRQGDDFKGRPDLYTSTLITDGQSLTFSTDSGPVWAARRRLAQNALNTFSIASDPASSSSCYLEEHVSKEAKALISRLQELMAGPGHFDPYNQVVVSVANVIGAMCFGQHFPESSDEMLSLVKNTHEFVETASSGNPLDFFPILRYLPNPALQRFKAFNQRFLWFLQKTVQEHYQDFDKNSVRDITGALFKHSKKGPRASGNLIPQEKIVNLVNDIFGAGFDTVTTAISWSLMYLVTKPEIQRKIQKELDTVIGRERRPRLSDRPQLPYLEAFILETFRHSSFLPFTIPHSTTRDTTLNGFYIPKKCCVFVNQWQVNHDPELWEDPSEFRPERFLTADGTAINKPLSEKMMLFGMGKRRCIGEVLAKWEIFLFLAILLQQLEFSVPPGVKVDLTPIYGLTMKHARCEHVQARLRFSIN

Cytochrome P450 2C9 = Cytochrome P450 2C9 (Homo sapiens, UniProt P11712); assay: Inhibition of CYP2C9 (unknown origin); assay type: ADME
Cytochrome P450 2C19 = Cytochrome P450 2C19 (Homo sapiens, UniProt P33261); assay: (§1) Inhibition of CYP2C19 (unknown origin); assay type: ADME
Cytochrome P450 2D6 = Cytochrome P450 2D6 (Homo sapiens, UniProt P10635); assay: (§2) Inhibition of CYP2D6 (unknown origin); assay type: ADME
Cytochrome P450 3A4 = Cytochrome P450 3A4 (Homo sapiens, UniProt P08684); assay: Inhibition of CYP3A4 (unknown origin); assay type: ADME
[8] = Stability in human plasma assessed as parent compound remaining measured after 120 mins; assay type: ADME, cell-free; details: 2 h
[9] = Stability in Wistar rat plasma assessed as parent compound remaining measured after 120 mins; assay type: ADME, cell-free; details: 2 h
[10] = Stability in mouse plasma assessed as parent compound remaining measured after 120 mins; assay type: ADME, cell-free; details: 2 h
[11] = Microsomal stability in mouse plasma assessed as half life; assay type: ADME, cell-free
[12] = Microsomal stability in Wistar rat plasma assessed as half life; assay type: ADME, cell-free
[13] = Microsomal stability in human plasma assessed as half life; assay type: ADME, cell-free
Adenosine receptor A1 [14] = target: T3, Adenosine receptor A1 (Mus musculus, UniProt Q60612); assay: Displacement of [3H] N6-R-phenylisopropyladenosine from mouse A1A receptor stably expressed in HEK293 cell membrane by radioligand inhibition assay; assay type: cell membranes
T3 sequence (Q60612 whole entry): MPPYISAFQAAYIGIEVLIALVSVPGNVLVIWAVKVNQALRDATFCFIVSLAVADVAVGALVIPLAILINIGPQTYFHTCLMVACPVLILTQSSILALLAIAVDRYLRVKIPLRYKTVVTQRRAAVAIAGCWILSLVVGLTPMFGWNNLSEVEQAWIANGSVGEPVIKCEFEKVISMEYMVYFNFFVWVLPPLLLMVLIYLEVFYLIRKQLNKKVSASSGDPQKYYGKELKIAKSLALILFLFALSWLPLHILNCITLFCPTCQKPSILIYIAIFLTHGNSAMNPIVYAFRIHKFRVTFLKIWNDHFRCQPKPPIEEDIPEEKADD

Adenosine receptor A3 [15] = target: T4, Adenosine receptor A3 (Mus musculus, UniProt Q61618); assay: Displacement of [125I] N6-4-amino-3-iodobenzyl adenosine 5-N-methyluronamide from mouse A3A receptor stably expressed in HEK293 cell membrane by radioligand inhibition assay; assay type: cell membranes
T4 sequence (Q61618 whole entry): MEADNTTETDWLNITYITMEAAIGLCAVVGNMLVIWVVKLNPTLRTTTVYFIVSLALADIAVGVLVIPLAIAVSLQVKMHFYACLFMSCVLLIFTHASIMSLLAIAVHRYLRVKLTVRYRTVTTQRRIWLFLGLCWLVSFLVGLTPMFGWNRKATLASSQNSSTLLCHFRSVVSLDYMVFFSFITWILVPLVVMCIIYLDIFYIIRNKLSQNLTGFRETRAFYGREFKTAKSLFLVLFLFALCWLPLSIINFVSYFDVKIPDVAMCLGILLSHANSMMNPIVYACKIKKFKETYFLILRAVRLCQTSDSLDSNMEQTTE

Adenosine receptor A2a [16] = target: T1, Adenosine receptor A2a; assay: Binding affinity to human adenosine A2A receptor expressed in human HEK293 cell membrane at 10 uM by radioligand inhibition assay; assay type: cell membranes
Adenosine receptor A1 [17] = target: T5, Adenosine receptor A1 (Homo sapiens, UniProt P30542); assay: Displacement of [3H] N6-R-phenylisopropyladenosine from human A1A receptor stably expressed in HEK293 cell membrane by radioligand inhibition assay; assay type: cell membranes
T5 sequence (P30542 whole entry): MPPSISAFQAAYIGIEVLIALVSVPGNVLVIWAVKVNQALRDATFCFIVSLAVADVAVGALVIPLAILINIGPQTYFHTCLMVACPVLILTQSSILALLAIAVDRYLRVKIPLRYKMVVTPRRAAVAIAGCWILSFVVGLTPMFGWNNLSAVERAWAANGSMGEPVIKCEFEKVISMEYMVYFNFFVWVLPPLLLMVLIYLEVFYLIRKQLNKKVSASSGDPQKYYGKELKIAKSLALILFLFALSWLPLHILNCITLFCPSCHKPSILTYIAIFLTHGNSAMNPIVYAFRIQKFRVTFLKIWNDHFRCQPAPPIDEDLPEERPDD

Adenosine receptor A3 [18] = target: T6, Adenosine receptor A3 (Homo sapiens, UniProt P0DMS8); assay: Displacement of [125I] N6-(4-amino-3-iodobenzyl)adenosine-5'-N-methyluronamide from human A3A receptor stably expressed in HEK293 cell membrane by radioligand inhibition assay; assay type: cell membranes
T6 sequence (P0DMS8 whole entry): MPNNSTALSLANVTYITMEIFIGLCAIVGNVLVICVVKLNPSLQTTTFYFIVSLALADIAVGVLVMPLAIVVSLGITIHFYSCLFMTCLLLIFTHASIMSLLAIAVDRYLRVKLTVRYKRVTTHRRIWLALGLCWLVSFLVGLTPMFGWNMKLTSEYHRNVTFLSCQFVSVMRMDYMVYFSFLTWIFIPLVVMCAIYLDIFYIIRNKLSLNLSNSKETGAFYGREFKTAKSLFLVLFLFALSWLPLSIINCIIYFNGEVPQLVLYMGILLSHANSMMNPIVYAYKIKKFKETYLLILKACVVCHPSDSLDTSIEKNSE

[19] = Oral bioavailability in Wistar rat at 10 mg/kg; assay type: ADME, organism-based; details: in vivo
[20] = target: T7, Adenosine receptor A1 (Homo sapiens) (UniProt P30542); assay: Binding affinity to human adenosine A1A receptor expressed in human HEK293 cell membrane at 10 uM by radioligand inhibition assay; assay type: cell membranes
T7 sequence (whole entry): T5 sequence (P30542 whole entry)

[21] = Apparent permeability across apical to basolateral side in human Caco-2 cells; assay type: ADME, cell-based
[22] = Efflux ratio of permeability in human Caco2 cells; assay type: ADME, cell-based; details: caco-2
CYP2C19 = CYP2C19 (Homo sapiens, UniProt P33261); assay: as §1; assay type: ADME
CYP2D6 = CYP2D6 (Homo sapiens, UniProt P10635); assay: as §2; assay type: ADME
Chain of CYP2D6 (P10635 whole entry): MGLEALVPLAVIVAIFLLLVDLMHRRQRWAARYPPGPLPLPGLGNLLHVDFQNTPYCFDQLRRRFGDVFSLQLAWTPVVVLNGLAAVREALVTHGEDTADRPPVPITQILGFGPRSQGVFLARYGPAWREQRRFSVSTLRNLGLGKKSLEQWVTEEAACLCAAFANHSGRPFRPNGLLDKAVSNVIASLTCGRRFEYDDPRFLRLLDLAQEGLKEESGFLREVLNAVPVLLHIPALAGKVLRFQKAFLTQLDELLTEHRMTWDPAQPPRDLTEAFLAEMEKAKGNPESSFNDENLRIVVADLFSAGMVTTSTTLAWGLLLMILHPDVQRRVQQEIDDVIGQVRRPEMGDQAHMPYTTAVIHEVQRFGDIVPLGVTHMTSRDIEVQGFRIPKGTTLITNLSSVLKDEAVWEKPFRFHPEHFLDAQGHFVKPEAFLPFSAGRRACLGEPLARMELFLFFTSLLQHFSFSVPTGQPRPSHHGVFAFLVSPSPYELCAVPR

T1 sequence (P29274 whole entry): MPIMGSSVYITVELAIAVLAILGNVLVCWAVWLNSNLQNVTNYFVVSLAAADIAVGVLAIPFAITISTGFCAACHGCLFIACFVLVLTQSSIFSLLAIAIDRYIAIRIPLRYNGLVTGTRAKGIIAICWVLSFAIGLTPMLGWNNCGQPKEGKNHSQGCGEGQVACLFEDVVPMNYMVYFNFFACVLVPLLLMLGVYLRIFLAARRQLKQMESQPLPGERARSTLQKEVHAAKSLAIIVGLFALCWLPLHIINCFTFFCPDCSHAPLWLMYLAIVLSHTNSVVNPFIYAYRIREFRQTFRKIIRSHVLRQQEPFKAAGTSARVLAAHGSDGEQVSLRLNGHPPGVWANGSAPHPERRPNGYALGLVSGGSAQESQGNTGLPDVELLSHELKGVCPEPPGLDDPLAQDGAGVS
Chain of Voltage-gated inwardly rectifying potassium channel KCNH2 (Q12809 whole entry): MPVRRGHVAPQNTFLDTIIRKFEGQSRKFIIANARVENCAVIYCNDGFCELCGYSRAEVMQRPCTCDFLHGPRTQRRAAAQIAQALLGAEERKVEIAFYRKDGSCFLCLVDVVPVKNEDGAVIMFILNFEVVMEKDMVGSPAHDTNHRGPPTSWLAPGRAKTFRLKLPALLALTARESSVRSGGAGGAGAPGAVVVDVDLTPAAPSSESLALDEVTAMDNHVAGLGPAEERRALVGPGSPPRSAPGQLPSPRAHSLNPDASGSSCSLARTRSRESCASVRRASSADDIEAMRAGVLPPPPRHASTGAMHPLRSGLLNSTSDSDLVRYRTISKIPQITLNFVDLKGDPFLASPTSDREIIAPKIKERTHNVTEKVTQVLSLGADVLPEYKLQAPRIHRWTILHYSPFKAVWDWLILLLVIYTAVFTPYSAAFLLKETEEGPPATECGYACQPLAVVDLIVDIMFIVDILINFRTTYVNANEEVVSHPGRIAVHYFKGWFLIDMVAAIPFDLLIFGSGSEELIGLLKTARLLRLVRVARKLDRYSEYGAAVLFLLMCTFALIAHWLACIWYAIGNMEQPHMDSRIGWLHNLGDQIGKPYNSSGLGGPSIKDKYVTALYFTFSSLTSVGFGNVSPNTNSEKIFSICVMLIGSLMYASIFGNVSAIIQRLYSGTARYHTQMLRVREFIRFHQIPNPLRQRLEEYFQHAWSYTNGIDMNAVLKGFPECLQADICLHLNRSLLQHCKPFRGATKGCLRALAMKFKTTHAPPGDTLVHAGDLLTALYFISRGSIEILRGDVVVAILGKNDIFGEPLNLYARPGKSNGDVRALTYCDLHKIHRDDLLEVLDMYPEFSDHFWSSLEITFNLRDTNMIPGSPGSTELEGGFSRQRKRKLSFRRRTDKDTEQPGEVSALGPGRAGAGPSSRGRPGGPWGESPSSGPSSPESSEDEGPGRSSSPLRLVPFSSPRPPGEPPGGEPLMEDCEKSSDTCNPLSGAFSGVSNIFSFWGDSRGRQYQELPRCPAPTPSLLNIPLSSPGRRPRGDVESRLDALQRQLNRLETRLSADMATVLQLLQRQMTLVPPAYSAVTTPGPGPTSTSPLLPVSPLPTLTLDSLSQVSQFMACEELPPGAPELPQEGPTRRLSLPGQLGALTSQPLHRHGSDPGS
Chain of Cytochrome P450 2C19 (P33261 whole entry): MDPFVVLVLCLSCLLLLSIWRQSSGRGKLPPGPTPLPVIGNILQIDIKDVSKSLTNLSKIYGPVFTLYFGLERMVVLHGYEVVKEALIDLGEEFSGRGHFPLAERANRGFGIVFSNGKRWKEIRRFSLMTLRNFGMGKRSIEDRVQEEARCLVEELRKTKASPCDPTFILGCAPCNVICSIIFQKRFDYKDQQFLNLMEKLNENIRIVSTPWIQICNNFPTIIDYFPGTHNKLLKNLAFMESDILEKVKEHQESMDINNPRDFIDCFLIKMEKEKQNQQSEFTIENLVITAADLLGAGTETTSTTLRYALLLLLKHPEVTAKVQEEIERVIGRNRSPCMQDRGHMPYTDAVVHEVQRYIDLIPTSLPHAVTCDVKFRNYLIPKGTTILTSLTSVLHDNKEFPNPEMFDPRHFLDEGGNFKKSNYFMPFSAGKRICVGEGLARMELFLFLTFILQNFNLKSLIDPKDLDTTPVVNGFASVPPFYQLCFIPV
Chain of Cytochrome P450 2C9 (P11712 whole entry): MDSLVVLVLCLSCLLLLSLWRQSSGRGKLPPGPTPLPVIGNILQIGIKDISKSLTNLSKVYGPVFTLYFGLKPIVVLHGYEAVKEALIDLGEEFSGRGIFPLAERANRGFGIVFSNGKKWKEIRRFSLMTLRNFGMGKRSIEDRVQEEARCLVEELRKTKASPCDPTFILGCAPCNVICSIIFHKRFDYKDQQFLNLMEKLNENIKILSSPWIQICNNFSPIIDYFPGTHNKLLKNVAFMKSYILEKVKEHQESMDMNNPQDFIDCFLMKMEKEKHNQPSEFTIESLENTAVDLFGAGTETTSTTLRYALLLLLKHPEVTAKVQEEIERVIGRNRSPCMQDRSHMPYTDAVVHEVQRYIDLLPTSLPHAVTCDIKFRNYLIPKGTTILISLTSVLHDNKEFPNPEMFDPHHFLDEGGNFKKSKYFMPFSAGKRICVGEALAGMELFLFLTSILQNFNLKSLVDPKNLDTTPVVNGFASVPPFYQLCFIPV
Chain of Cytochrome P450 3A4 (P08684 whole entry): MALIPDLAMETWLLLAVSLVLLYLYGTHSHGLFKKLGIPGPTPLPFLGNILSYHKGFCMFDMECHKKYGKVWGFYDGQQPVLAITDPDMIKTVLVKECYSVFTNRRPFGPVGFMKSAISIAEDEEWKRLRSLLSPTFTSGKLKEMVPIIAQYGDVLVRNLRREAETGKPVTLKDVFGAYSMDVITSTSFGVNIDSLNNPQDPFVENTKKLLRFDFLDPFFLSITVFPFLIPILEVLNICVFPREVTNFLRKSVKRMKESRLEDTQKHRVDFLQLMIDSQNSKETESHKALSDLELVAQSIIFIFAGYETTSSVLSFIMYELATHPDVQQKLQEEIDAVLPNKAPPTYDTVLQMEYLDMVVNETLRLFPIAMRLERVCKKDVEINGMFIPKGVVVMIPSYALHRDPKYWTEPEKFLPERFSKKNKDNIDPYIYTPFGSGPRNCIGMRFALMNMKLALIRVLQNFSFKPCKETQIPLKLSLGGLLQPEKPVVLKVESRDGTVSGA
Chain of Cytochrome P450 2D6 (P10635 whole entry): as the sequence (P10635 whole entry) above
Chain of CYP2C19 (P33261 whole entry): as the sequence (P33261 whole entry) above

SMILES	solubility ([2]; buffer) [µg/mL]	IC50 [3] [nM]	half-life [4] [min]	Stability [6] [%]	Stability [7] [%]	IC50 (Cytochrome P450 1A2) [nM]	IC50 (Cytochrome P450 2C9) [nM]	IC50 (Cytochrome P450 2C19) [nM]	IC50 (Cytochrome P450 2D6) [nM]	IC50 (Cytochrome P450 3A4) [nM]	Stability [8] [%]	Stability [9] [%]	Stability [10] [%]	half-life [11] [min]	half-life [12] [min]	half-life [13] [min]	Ki (Adenosine receptor A1 [14]) [nM]	Ki (Adenosine receptor A3 [15]) [nM]	inhibition (Adenosine receptor A2a [16]) [%]	Ki (Adenosine receptor A3 [18]) [nM]	also measured
CNC(=O)[C@@]12C[C@@H]1[C@@H](n1cnc3c(NCCc4ccc(OC)c(O)c4)nc(OCC(C)C)nc31)[C@H](O)[C@@H]2O	167 (≈ 317 µM)	16500	101	64.5	100	250	> 30000	> 30000	> 30000	830	56.9	84.6	94.6	9.15	22.5	6.51	317	17.6	–	–	bioavailability [1]: 4.34%; Ki (Adenosine receptor A2a [5]): 588 nM
CNC(=O)[C@@]12C[C@@H]1[C@@H](n1cnc3c(NCCc4ccccc4)nc(I)nc31)[C@H](O)[C@@H]2O	–	–	–	–	–	–	–	–	–	–	–	–	–	–	–	–	272	1.69	39	4.48	Ki (Adenosine receptor A1 [17]): 574 nM
CNC(=O)[C@@]12C[C@@H]1[C@@H](n1cnc3c(NCCc4ccc(OC)c(OC)c4)nc(C#Cc4ccc(Cl)s4)nc31)[C@H](O)[C@@H]2O	3.84 (≈ 6.3 µM)	3650	43.9	100	100	430	> 30000	15100	17700	780	100	100	100	6.72	11.5	2	7050	2.21	16	8.67	bioavailability [19]: 1.88%; inhibition [20]: 0%; Papp [21]: 0.44 10^-6 cm/s; Ratio [22]: 46.6
COc1cc(CCNc2nc(C#Cc3ccccc3)nc3c2ncn3[C@H]2[C@H](O)[C@H](O)[C@@H]3C[C@@H]32)ccc1O	–	5390	16.4	–	–	–	–	–	–	–	–	–	–	7.92	15.7	16.3	–	–	–	–	solubility ([2]; aqueous, read-out: solubility): 13 µg/mL (≈ 26.1 µM); IC50 (CYP2C19): > 30000 nM; IC50 (CYP2D6): > 30000 nM; Papp A→B [21]: 2.71 ×10⁻⁶ cm/s
